Source: patent US7462600B2, “Macrolides” (Pfizer Inc, priority 2004, dated 2008)
Values after ≈ are worked out from the molar mass of the structure shown.

Assays:
Type in all cases: cell-based
[1] = test system: Streptococcus pneumoniae 1016; assay: MIC, microtiter broth dilution (NCCLS M100-S14), S. pneumoniae 1016 (susceptible); settings: S. pneumoniae 1016 (susceptible)
In short: (§1)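 MIC read-out follows NCCLS M100-S14 interpretation of microtiter tray broth dilution. Test agents are prepared as DMSO stocks at 40 mg/ml.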

[2] = test system: Streptococcus pneumoniae 1175; settings: S. pneumoniae 1175 (mefA); microtiter broth dilution
In short: as §1

[3] = test system: Streptococcus pneumoniae 1095; settings: S. pneumoniae 1095 (ermB); microtiter broth dilution
In short: as §1

[4] = test system: Haemophilus influenzae 1218; assay: MIC, microtiter broth dilution (NCCLS M100-S14), H. influenzae 1218 (susceptible); settings: H. influenzae 1218 (susceptible)
In short: as §1

[5] = test system: Streptococcus pyogenes 1079; assay: MIC, microtiter broth dilution (NCCLS M100-S14), S. pyogenes 1079 (ermB); settings: S. pyogenes 1079 (ermB)
In short: as §1

Compound	MIC S. pneumo. 1016 [1] [µg/mL]	MIC S. pneumo. 1175 [2] [µg/mL]	MIC S. pneumo. 1095 [3] [µg/mL]	MIC H. influenzae 1218 [4] [µg/mL]	MIC S. pyogenes 1079 [5] [µg/mL]
CC[C@H]1OC(=O)[C@H](C)C(=O)[C@H](C)[C@@H](O[C@@H]2O[C@H](C)C[C@H](N(C)C)[C@H]2O)[C@](C)(OC)C[C@@H](C)C(=O)[C@H](C)[C@H]2N(CC3(C)CN(Cc4nc5ccccc5[nH]4)C3)C(=O)O[C@]12C.O=CO [6.11]	<0.06	<0.06	0.25	1	>64.00
CC[C@H]1OC(=O)[C@H](C)C(=O)[C@H](C)[C@@H](O[C@@H]2O[C@H](C)C[C@H](N(C)C)[C@H]2O)[C@](C)(OC)C[C@@H](C)C(=O)[C@H](C)[C@H]2N(CC3(O)CN(Cc4ccc5nccnc5c4)C3)C(=O)O[C@]12C [7.03]	<0.06	0.12 (≈ 0.143 µM)	0.12 (≈ 0.143 µM)	0.5 (≈ 0.595 µM)	>64.00
CC[C@H]1OC(=O)[C@H](C)C(=O)[C@H](C)[C@@H](O[C@@H]2O[C@H](C)C[C@H](N(C)C)[C@H]2O)[C@](C)(OC)C[C@@H](C)C(=O)[C@H](C)[C@H]2N(CC3(O)CN(Cc4c[nH]c5ncccc45)C3)C(=O)O[C@]12C [7.04]	<0.06	1 (≈ 1.21 µM)	<0.06	0.5 (≈ 0.604 µM)	32 (≈ 38.6 µM)
CCC1OC(=O)C(C)C(=O)C(C)C(OC2OC(C)CC(N(C)C)C2O)C(C)(OC)CC(C)C(=O)C(C)C2N(CC3(O)CN(C(=O)c4ccc5ncccc5c4)C3)C(=O)OC12C (stereo not shown) [7.05]	<0.06	1 (≈ 1.17 µM)	2 (≈ 2.34 µM)	1 (≈ 1.17 µM)	>64.00
CCC1OC(=O)C(C)C(=O)C(C)C(OC2OC(C)CC(N(C)C)C2O)C(C)(OC)CC(C)C(=O)C(C)C2N(CC3(O)CN(S(=O)(=O)c4cccc5cccnc45)C3)C(=O)OC12C (stereo not shown) [7.06]	<0.06	0.5 (≈ 0.562 µM)	32 (≈ 36 µM)	0.5 (≈ 0.562 µM)	>64.00
CC[C@H]1OC(=O)[C@H](C)C(=O)[C@H](C)[C@@H](O[C@@H]2O[C@H](C)C[C@H](N(C)C)[C@H]2O)[C@](C)(OC)C[C@@H](C)C(=O)[C@H](C)[C@H]2N(CC3(O)CN(Cc4nc(C)[nH]c4C)C3)C(=O)O[C@]12C [7.07]	0.12 (≈ 0.149 µM)	4 (≈ 4.96 µM)	8 (≈ 9.93 µM)	16 (≈ 19.9 µM)	>64.00
CC[C@H]1OC(=O)[C@H](C)C(=O)[C@H](C)[C@@H](O[C@@H]2O[C@H](C)C[C@H](N(C)C)[C@H]2O)[C@](C)(OC)C[C@@H](C)C(=O)[C@H](C)[C@H]2N(CC3(O)CN(Cc4cccc5nc[nH]c45)C3)C(=O)O[C@]12C [7.08]	<0.06	0.25 (≈ 0.302 µM)	<0.06	0.25 (≈ 0.302 µM)	>64.00
CC[C@H]1OC(=O)[C@H](C)C(=O)[C@H](C)[C@@H](O[C@@H]2O[C@H](C)C[C@H](N(C)C)[C@H]2O)[C@](C)(OC)C[C@@H](C)C(=O)[C@H](C)[C@H]2N(CC3(O)CN(Cc4c[nH]c(=O)[nH]c4=O)C3)C(=O)O[C@]12C [7.09]	0.5 (≈ 0.608 µM)	16 (≈ 19.5 µM)	64 (≈ 77.9 µM)	16 (≈ 19.5 µM)	>64.00
CC[C@H]1OC(=O)[C@H](C)C(=O)[C@H](C)[C@@H](O[C@@H]2O[C@H](C)C[C@H](N(C)C)[C@H]2O)[C@](C)(OC)C[C@@H](C)C(=O)[C@H](C)[C@H]2N(CC3(O)CN(Cc4ccc(-c5ncccn5)cc4)C3)C(=O)O[C@]12C [7.10]	<0.06	1 (≈ 1.15 µM)	64 (≈ 73.9 µM)	2 (≈ 2.31 µM)	>64.00
CC[C@H]1OC(=O)[C@H](C)C(=O)[C@H](C)[C@@H](O[C@@H]2O[C@H](C)C[C@H](N(C)C)[C@H]2O)[C@](C)(OC)C[C@@H](C)C(=O)[C@H](C)[C@H]2N(CC3(O)CN(Cc4ccno4)C3)C(=O)O[C@]12C [7.11]	<0.06	0.5 (≈ 0.642 µM)	4 (≈ 5.14 µM)	2 (≈ 2.57 µM)	>64.00
CC[C@H]1OC(=O)[C@H](C)C(=O)[C@H](C)[C@@H](O[C@@H]2O[C@H](C)C[C@H](N(C)C)[C@H]2O)[C@](C)(OC)C[C@@H](C)C(=O)[C@H](C)[C@H]2N(CC3(O)CN(Cc4ccc(-c5cncnc5)cc4)C3)C(=O)O[C@]12C [7.12]	<0.06	0.5 (≈ 0.577 µM)	>64.00	2 (≈ 2.31 µM)	>64.00
CC[C@H]1OC(=O)[C@H](C)C(=O)[C@H](C)[C@@H](O[C@@H]2O[C@H](C)C[C@H](N(C)C)[C@H]2O)[C@](C)(OC)C[C@@H](C)C(=O)[C@H](C)[C@H]2N(CC3(O)CN(Cc4ccn(-c5cccnc5)n4)C3)C(=O)O[C@]12C [7.13]	<0.06	1 (≈ 1.17 µM)	1 (≈ 1.17 µM)	2 (≈ 2.34 µM)	>64.00
CC[C@H]1OC(=O)[C@H](C)C(=O)[C@H](C)[C@@H](O[C@@H]2O[C@H](C)C[C@H](N(C)C)[C@H]2O)[C@](C)(OC)C[C@@H](C)C(=O)[C@H](C)[C@H]2N(CC3(O)CN(S(=O)(=O)c4cccc5cnccc45)C3)C(=O)O[C@]12C [7.14]	<0.06	0.12 (≈ 0.135 µM)	1 (≈ 1.12 µM)	0.25 (≈ 0.281 µM)	>64.00
CC[C@H]1OC(=O)[C@H](C)C(=O)[C@H](C)[C@@H](O[C@@H]2O[C@H](C)C[C@H](N(C)C)[C@H]2O)[C@](C)(OC)C[C@@H](C)C(=O)[C@H](C)[C@H]2N(CC3(O)CN(S(=O)(=O)c4c(C)n[nH]c4C)C3)C(=O)O[C@]12C [7.15]	<0.06	4 (≈ 4.67 µM)	>64.00	2 (≈ 2.34 µM)	>64.00
